Experiments:
[1] = test system: BRCA1 mRNA expression in MDA-MB-231 cells; assay: qRT-PCR assay: BRCA1 mRNA expression in MDA-MB-231; assay type: cell-based, human; conditions: Homo sapiens, MDA-MB-231, Inhibition of BRCA1 mRNA expression in MDA-MB-231 cells; median; read-out: RTqPCR-MDA-MB-231, IC50, BRCA1 (median)
Summary of the method: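 Cells were seeded at 200,000 cells/well, left 24 h, then exposed continuously to test substances for 24 h. Total RNA (600 ng) was reverse-transcribed to cDNA and amplified by qPCR, and transcript levels were normalised to GAPDH housekeeping expression.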

[2] = target: CDK12/CycK (Homo sapiens, UniProt Q9NYV4); assay: CDK12/CycK high ATP kinase assay (TR-FRET, 2 mM ATP); assay type: biochemical; conditions: 2 mM ATP (high ATP); median; read-out: CDK12/CyclinK, 2 mM ATP (high ATP), IC50-[mol/l] (median)
Chain of CDK12/CycK (Q9NYV4 with tags, fused parts or gaps): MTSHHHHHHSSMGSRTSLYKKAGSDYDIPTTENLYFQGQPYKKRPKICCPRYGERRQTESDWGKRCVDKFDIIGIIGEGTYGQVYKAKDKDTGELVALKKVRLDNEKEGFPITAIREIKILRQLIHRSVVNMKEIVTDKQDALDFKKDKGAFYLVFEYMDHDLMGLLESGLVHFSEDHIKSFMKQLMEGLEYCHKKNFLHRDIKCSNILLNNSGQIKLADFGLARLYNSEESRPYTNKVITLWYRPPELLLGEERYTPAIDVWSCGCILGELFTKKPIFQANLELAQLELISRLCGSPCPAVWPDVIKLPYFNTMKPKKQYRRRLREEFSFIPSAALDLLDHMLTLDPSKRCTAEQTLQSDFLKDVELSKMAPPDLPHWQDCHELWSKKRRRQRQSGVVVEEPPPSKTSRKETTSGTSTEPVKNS
Chain of CDK12/CycK (O75909 1-300 partner limits assumed): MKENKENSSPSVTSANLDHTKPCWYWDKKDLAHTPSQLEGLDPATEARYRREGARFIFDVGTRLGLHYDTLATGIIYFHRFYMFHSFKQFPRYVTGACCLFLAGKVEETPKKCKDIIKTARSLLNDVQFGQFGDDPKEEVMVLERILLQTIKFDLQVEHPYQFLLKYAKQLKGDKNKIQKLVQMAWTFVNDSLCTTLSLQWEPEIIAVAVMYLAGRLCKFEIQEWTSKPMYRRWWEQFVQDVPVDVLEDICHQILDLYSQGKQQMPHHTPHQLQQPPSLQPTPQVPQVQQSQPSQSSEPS
Summary of the method: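 His-tagged human CDK12/CycK (~0.75 nM) pre-incubated 15 min with compound, then 60 min at 22 °C with 2 mM ATP and 1 µM biotinylated peptide (HEPES pH 7.5, 20 mM MgCl2). EDTA stop; phospho-Ser62 antibody/Eu anti-rabbit and streptavidin-XL665 TR-FRET, 665/620 nm ratio normalised to give IC50.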

[3] = test system: CAL-120, human breast adenocarcinoma cells; assay: Proliferation assay CAL-120 (crystal violet, 4 days); assay type: cell-based; conditions: Homo sapiens, CAL-120, 96 h, CAL-120 cells, median, read-out: Prolif-CAL-120, IC50-[mol/l] (median)
Summary of the method: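 Cells seeded at 4,000/well in medium with 10% FCS; after 24 h, compounds added at 0.01-10 µmol/L (0.1% DMSO) for 4 days. Glutaraldehyde-fixed, crystal violet-stained, absorbance at 595 nm normalized to zero-point plate (0%) and untreated cells (100%); IC50 by 4-parameter fit.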

| IC50 [1] | IC50 [2] | IC50 [3] | Structure (SMILES) |
| --- | --- | --- | --- |
| 23.2 nM | 7190 nM | 23.9 nM | Brc1cnn2c(NCc3nc4ccccc4[nH]3)nc(N3CCCC3)nc12 [Example 47, N-[(1H-benzimidazol-2-yl)methyl]-8-bromo-2-(pyrrolidin-1-yl)pyrazolo[1,5-a][1,3,5]triazin-4-amine] |
| 21.8 nM | 5310 nM | 17.3 nM | C[C@@H]1COCCN1c1nc(NCc2nc3ccccc3[nH]2)n2ncc(Br)c2n1 [Example 56, N-[(1H-benzimidazol-2-yl)methyl]-8-bromo-2-[(3R)-3-methylmorpholin-4-yl]pyrazolo[1,5-a][1,3,5]triazin-4-amine] |
| 14.6 nM | 2440 nM | 23.1 nM | Cc1cccc(-c2nnc(CNc3nc(N4CCOCC4)nc4c(Br)cnn34)[nH]2)c1 [Example 40, 8-bromo-N-{[5-(3-methylphenyl)-4H-1,2,4-triazol-3-yl]methyl}-2-(morpholin-4-yl)pyrazolo[1,5-a][1,3,5]triazin-4-amine] |
| 51.5 nM | 8510 nM | 14.9 nM | FC(F)Cc1cnn2c(NCc3nc4ccccc4[nH]3)nc(N3CCOCC3)nc12.O=C(O)C(F)(F)F [Example 444, trifluoroacetic acid N-[(1H-benzimidazol-2-yl)methyl]-8-(2,2-difluoroethyl)-2-(morpholin-4-yl)pyrazolo[1,5-a][1,3,5]triazin-4-amine] |
| 9.54 nM | > 20000 nM | 24.3 nM | COc1ccccc1-c1nnc(CNc2nc(N3CCOCC3)nc3c(Br)cnn23)[nH]1 [Example 61, 8-bromo-N-{[5-(2-methoxyphenyl)-4H-1,2,4-triazol-3-yl]methyl}-2-(morpholin-4-yl)pyrazolo[1,5-a][1,3,5]triazin-4-amine] |
| 5.8 nM | 1730 nM | 9.43 nM | Clc1cccc(-c2nnc(CNc3nc(N4CCOCC4)nc4c(Br)cnn34)[nH]2)c1 [Example 51, 8-bromo-N-{[5-(3-chlorophenyl)-4H-1,2,4-triazol-3-yl]methyl}-2-(morpholin-4-yl)pyrazolo[1,5-a][1,3,5]triazin-4-amine] |
| 3.21 nM | 23.9 nM | 3.57 nM | Fc1ccc2[nH]c(CNc3nc(N4CCOCC4)nc4c(C(F)(F)F)cnn34)nc2c1F [Example 426, N-[(4,5-difluoro-1H-benzimidazol-2-yl)methyl]-2-(morpholin-4-yl)-8-(trifluoromethyl)pyrazolo [1,5-a][1,3,5]triazin-4-amine] |
| 74.6 nM | 8580 nM | 38.3 nM | FC(F)n1cc(-c2cnn3c(NCc4nc5ccccc5[nH]4)nc(N4CCOCC4)nc23)cn1 [Example 421, N-[(1H-benzimidazol-2-yl)methyl]-8-[1-(difluoromethyl)-1H-pyrazol-4-yl]-2-(morpholin-4-yl)pyrazolo[1,5-a][1,3,5]triazin-4-amine] |
| 94.2 nM | > 5710 nM | 120 nM | Brc1cnn2c(NCc3nc4ccccc4[nH]3)nc(N3CC4(COC4)C3)nc12 [Example 48, N-[(1H-benzimidazol-2-yl)methyl]-8-bromo-2-(2-oxa-6-azaspiro[3.3]heptan-6-yl)pyrazolo[1,5-a][1,3,5]triazin-4-amine] |
| 23.7 nM | 5230 nM |  | CC(C)c1cnn2c(NCc3nnc(-c4ccccc4)[nH]3)nc(N3CCOCC3)nc12 [Example 33, 2-(morpholin-4-yl)-N-[(5-phenyl-4H-1,2,4-triazol-3-yl)methyl]-8-(propan-2-yl)pyrazolo[1,5-a][1,3,5]triazin-4-amine] |
| 14.7 nM | 6400 nM | 11.1 nM | Cc1cnn2c(NCc3nc4c(F)c(F)ccc4[nH]3)nc(N(C)CC(C)(C)O)nc12 [Example 395, 1-[(4-{[(4,5-difluoro-1H-benzimidazol-2-yl)methyl]amino}-8-methylpyrazolo[1,5-a][1,3,5]triazin-2-yl)(methyl)amino]-2-methylpropan-2-ol] |
| 2.55 nM | 4370 nM | 4.73 nM | Cc1cnn2c(NCc3nc4c(F)c(F)ccc4[nH]3)nc(N3CCOCC3)nc12 [Example 392, N-[(4,5-difluoro-1H-benzimidazol-2-yl)methyl]-8-methyl-2-(morpholin-4-yl)pyrazolo[1,5-a][1,3,5]triazin-4-amine] |
| 4.17 nM | 2810 nM | 7.02 nM | CCc1cnn2c(NCc3nc4ccccc4[nH]3)nc(N3CCOCC3)nc12 [Example 431, N-[(1H-benzimidazol-2-yl)methyl]-8-ethyl-2-(morpholin-4-yl)pyrazolo[1,5-a][1,3,5]triazin-4-amine] |
| 2.7 nM | > 20000 nM | 7.39 nM | Clc1cc2nc(CNc3nc(N4CCOCC4)nc4c(-c5ccnnc5)cnn34)[nH]c2cc1Cl.O=C(O)C(F)(F)F [Example 440, trifluoroacetic acid N-[(5,6-dichloro-1H-benzimidazol-2-yl)methyl]-2-(morpholin-4-yl)-8-(pyridazin-4-yl)pyrazolo[1,5-a][1,3,5]triazin-4-amine] |
| 2.95 nM | 1340 nM | 1.46 nM | Fc1cccc(-c2nnc(CNc3nc(N4CCOCC4)nc4c(Br)cnn34)[nH]2)c1 [Example 44, 8-bromo-N-{[5-(3-fluorophenyl)-4H-1,2,4-triazol-3-yl]methyl}-2-(morpholin-4-yl)pyrazolo[1,5-a][1,3,5]triazin-4-amine] |
| 7.47 nM | > 20000 nM | 8.86 nM | CN1CCN(c2nc(NCc3nc4c(F)c(F)ccc4[nH]3)n3ncc(C4CC4(F)F)c3n2)CC1 (centres unmarked) [Example 429, N-[(4,5-difluoro-1H-benzimidazol-2-yl)methyl]-8-(2,2-difluorocyclopropyl)-2-(4-methylpiperazin-1-yl)pyrazolo[1,5-a][1,3,5]triazin-4-amine] |
| 2.21 nM | 3980 nM | 5.31 nM | Clc1cc2nc(CNc3nc(N4CCOCC4)nc4c(-c5cncs5)cnn34)[nH]c2cc1Cl [Example 443, N-[(5,6-dichloro-1H-benzimidazol-2-yl)methyl]-2-(morpholin-4-yl)-8-(1,3-thiazol-5-yl)pyrazolo[1,5-a][1,3,5]triazin-4-amine] |
| 128 nM | > 20000 nM |  | CC(C)c1cnn2c(NCc3ncc(-c4ccccc4)[nH]3)nc(N3CCCCC3)nc12 [Example 36, N-[(5-phenyl-1H-imidazol-2-yl)methyl]-2-(piperidin-1-yl)-8-(propan-2-yl)pyrazolo[1,5-a][1,3,5]triazin-4-amine] |
| 10 nM | > 5710 nM |  | CCNc1nc(NCc2ncc(-c3ccccc3)[nH]2)n2ncc(C(C)C)c2n1 [Example 34, N^2-ethyl-N^4-[(5-phenyl-1H-imidazol-2-yl)methyl]-8-(propan-2-yl)pyrazolo[1,5-a][1,3,5]triazine-2,4-diamine] |
| 92.3 nM | 4670 nM |  | CC(C)c1cnn2c(NCc3nnc(-c4ccccc4)[nH]3)nc(N(C)CC(C)(C)O)nc12 [Example 39, 2-methyl-1-{methyl[4-{[(5-phenyl-4H-1,2,4-triazol-3-yl)methyl]amino}-8-(propan-2-yl)pyrazolo[1,5-a][1,3,5]triazin-2-yl]amino}propan-2-ol] |

| Structure (SMILES) | IC50 [1] | IC50 [2] | IC50 [3] |
| --- | --- | --- | --- |
| Cc1cnn2c(NCc3nc4c(F)c(F)ccc4[nH]3)nc(N3CC4CCC(C3)N4)nc12 [Example 400, 2-(3,8-diazabicyclo[3.2.1]octan-3-yl)-N-[(4,5-difluoro-1H-benzimidazol-2-yl)methyl]-8-methylpyrazolo[1,5-a][1,3,5]triazin-4-amine] | 14 nM | > 16700 nM | 5.23 nM |
